In PubChem BioAssay AID1918998 (Molecular Pharmacology Branch, DTP, NCI, 2023):

Tested on: 521955-158-R2-J5-PDC complex spheroid growth
Assay: Anticancer human tumor 521955-158-R2-J5-PDC patient-derived pancreatic carcinoma cell line growth inhibition [AhR]
Conditions: for IC50: curve of first compound; for viability, T/C: stronger effect = lower value
Description: Multicellular complex tumor spheroid response to aryl hydrocarbon receptor antagonists in combination with a variety of drugs and investigational agents in selected tumor cell lines
The current study was undertaken to assess response to aryl hydrocarbon receptor antagonists in combination with standard-of-care drugs and investigational agents in solid tumor complex spheroid models. Complex spheroids include a stromal component modeled by human endothelial cells (HUVEC) and fibroblasts modeled by human mesenchymal stem cells (MSCs). The concentration ranges selected for each drug and investigational agent were based upon clinically achievable concentrations if the clinical Cmax of the agent was known.
Compounds. The drugs and investigational agents: BAY 2416964 (NSC825713), GNF351 (NSC835774), CH-223191 (NSC835775), CPI-455 (NSC825282), aza-TdCyd (NSC777586), decitabine (NSC127716), belinostat (NSC758774), entinostat (NSC756642), pevonedistat (NSC761192), tazemetostat (NSC777109), talazoparib (NSC765396), olaparib (NSC753686), selinexor (NSC780203), nedisertib (M3814, NSC802822), bortezomib (NSC756655), venetoclax (NSC766270), doxorubicin (NSC123127), elimusertib (BAY189344, NSC800525), ceralasertib (AZD6738, NSC777638), TAK-243 (NSC785004), alisertib (NSC759677), etoposide (NSC141540), topotecan (NSC609699), eribulin (NSC707389), gemcitabine (NSC613327), carboplatin (NSC241240), cisplatin (NSC119875), and SN-38 (NSC673596) were obtained from the National Cancer Institute (NCI) Developmental Therapeutics Program Chemical Repository (32). The FDA-approved anticancer drug set is available from the Developmental Therapeutics Program at https://dtp.cancer.gov/organization/dscb/obtaining/available plates.htm. […] The stock solutions were prepared in dimethyl sulfoxide (DMSO, Sigma-Aldrich, St. Louis, MO, cat. D2650), except for the platinum compounds which were prepared in saline (Quality Biological, Gaithersburg, MD, cat. 114-055-101), at 800-fold the tested concentration and stored at -70 degrees C prior to their use. All drugs and investigational agents were tested over a range starting from a high concentration at or near the clinical Cmax and decreasing in half-log increments. If the clinical Cmax for an agent had not been determined, the highest concentration tested was 10 microM (Table 1).
Cell Culture. All cells were maintained in an incubator at 37 degrees C and 5% CO2 with 95% humidity. The PDC lines were cultured according to standard operating procedures established by the NCI PDMR (https://pdmr.cancer.gov). Briefly, all PDCs were thawed and cultured in Matrigel-coated flasks prepared with a working solution of 1X Ham's F-12 nutrient mix, without supplementation (Invitrogen, Waltham, MA, cat. 11765054), 100 U/mL penicillin-streptomycin (Invitrogen, cat. 15140122), and 2.5% Matrigel (Corning Inc., Corning, NY, cat. 354248) for the first three passages. All PDCs were cultured in complete DMEM/F-12 media containing advanced DMEM/F-12 (Invitrogen, cat. 12634028), 4.9% defined fetal bovine serum, heat inactivated (HyClone Laboratories Inc., Logan, UT, cat. SH30070.03HI), 389 ng/mL hydrocortisone (Sigma-Aldrich, cat. H4001), 9.7 ng/mL human EGF recombinant protein (Invitrogen, cat. PHG0313), 23.4 microg/mL adenine (Sigma-Aldrich, cat. A2786), 97.3 U/mL penicillin-streptomycin (Invitrogen, cat. 15140122), 1.9 mM L-glutamine (Invitrogen, cat. 25030081), and 9.7 microM Y-27632 dihydrochloride (Tocris Bioscience, Bristol, United Kingdom, cat. 1254). The PDCs were cultured in complete DMEM/F12 media without 10 microM Y-27632 dihydrochloride for at least two passages prior to the screen. The established cell lines NCI-H1341 and […] were cultured in DMEM/F-12, HEPES (Invitrogen, cat. 11330032), 5% defined fetal bovine serum (HyClone Laboratories Inc., cat. SH30070.03), ITS premix universal culture supplement [insulin (5 microg/mL), transferrin (5 microg/mL), and selenious acid (5 ng/mL)] […]

[1] = second compound 0.1 µM, first compound 0.00316 µM
[2] = second compound 0.1 µM, first compound 0.01 µM
[3] = second compound 0.1 µM, first compound 0.0316 µM
[4] = second compound 0.1 µM, first compound 0.1 µM
[5] = second compound 0.316 µM, first compound 0.00316 µM
[6] = second compound 0.316 µM, first compound 0.01 µM
[7] = second compound 0.316 µM, first compound 0.0316 µM
[8] = second compound 0.316 µM, first compound 0.1 µM
[9] = second compound 1 µM, first compound 0.00316 µM
[10] = second compound 1 µM, first compound 0.01 µM
[11] = second compound 1 µM, first compound 0.0316 µM
[12] = second compound 1 µM, first compound 0.1 µM
[13] = second compound 3.16 µM, first compound 0.00316 µM
[14] = second compound 3.16 µM, first compound 0.01 µM
[15] = second compound 3.16 µM, first compound 0.0316 µM
[16] = second compound 3.16 µM, first compound 0.1 µM
[17] = second compound 10 µM, first compound 0.00316 µM
[18] = second compound 10 µM, first compound 0.01 µM
[19] = second compound 10 µM, first compound 0.0316 µM
[20] = second compound 10 µM, first compound 0.1 µM
[21] = second compound 0.1 µM, first compound 0.316 µM
[22] = second compound 0.1 µM, first compound 1 µM
[23] = second compound 0.1 µM, first compound 3.16 µM
[24] = second compound 0.1 µM, first compound 10 µM
[25] = second compound 0.316 µM, first compound 0.316 µM
[26] = second compound 0.316 µM, first compound 1 µM
[27] = second compound 0.316 µM, first compound 3.16 µM
[28] = second compound 0.316 µM, first compound 10 µM
[29] = second compound 1 µM, first compound 0.316 µM
[30] = second compound 1 µM, first compound 1 µM
[31] = second compound 1 µM, first compound 3.16 µM
[32] = second compound 1 µM, first compound 10 µM
[33] = second compound 3.16 µM, first compound 0.316 µM
[34] = second compound 3.16 µM, first compound 1 µM
[35] = second compound 3.16 µM, first compound 3.16 µM
[36] = second compound 3.16 µM, first compound 10 µM
[37] = second compound 10 µM, first compound 0.316 µM
[38] = second compound 10 µM, first compound 1 µM
[39] = second compound 10 µM, first compound 3.16 µM
[40] = second compound 10 µM, first compound 10 µM
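Throughout, for viability, T/C: spheroids mix tumor cells with HUVEC endothelium and human MSC stroma; luminescence taken as viability surrogate after a week of drug exposure.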

Compound	IC50 (second compound 0.1 µM) [nM]	IC50 (second compound 0.316 µM) [nM]	IC50 (second compound 1 µM) [nM]	IC50 (second compound 3.16 µM) [nM]	IC50 (second compound 10 µM) [nM]	viability, T/C [3] [%]	viability, T/C [4] [%]	viability, T/C [7] [%]	viability, T/C [8] [%]	viability, T/C [11] [%]	viability, T/C [12] [%]	viability, T/C [15] [%]	viability, T/C [16] [%]	viability, T/C [19] [%]	viability, T/C [20] [%]	viability, T/C [21] [%]	viability, T/C [22] [%]	viability, T/C [25] [%]	viability, T/C [26] [%]	viability, T/C [29] [%]	other results
CC[C@@]1(O)C(=O)OCc2c1cc1n(c2=O)Cc2cc3c(CN(C)C)c(O)ccc3nc2-1 + CC(CO)NC(=O)c1cc(-c2ccc(Cl)cc2)nn(-c2cnn(C)c2)c1=O	32.3	36.7	28	22	19.9	51.8	16	57.4	13.3	46.1	20.1	38.3	19.2	35.3	17.9	–	–	–	–	–	viability, T/C (second compound 0.1 µM, first compound 0.000316 µM): 99.8%; viability, T/C (second compound 0.1 µM, first compound 0.001 µM): 91.6%; viability, T/C [1]: 110%; viability, T/C [2]: 82.5%; viability, T/C (second compound 0.316 µM, first compound 0.000316 µM): 112%; viability, T/C (second compound 0.316 µM, first compound 0.001 µM): 109%; viability, T/C [5]: 89.8%; viability, T/C [6]: 82.5%; viability, T/C (second compound 1 µM, first compound 0.000316 µM): 93%; viability, T/C (second compound 1 µM, first compound 0.001 µM): 104%; viability, T/C [9]: 106%; viability, T/C [10]: 86.5%; viability, T/C (second compound 3.16 µM, first compound 0.000316 µM): 99.2%; viability, T/C (second compound 3.16 µM, first compound 0.001 µM): 102%; viability, T/C [13]: 91.8%; viability, T/C [14]: 75.4%; viability, T/C (second compound 10 µM, first compound 0.000316 µM): 76.5%; viability, T/C (second compound 10 µM, first compound 0.001 µM): 86.3%; viability, T/C [17]: 85.6%; viability, T/C [18]: 71.6%
COc1cc(C2c3cc4c(cc3C(OC3OC5COC(C)OC5C(O)C3O)C3COC(=O)C23)OCO4)cc(OC)c1O (stereo not given) + CC(CO)NC(=O)c1cc(-c2ccc(Cl)cc2)nn(-c2cnn(C)c2)c1=O	1060	1160	916	698	422	85	78	92.3	102	98	98.3	93.5	87.5	76.3	71.4	91.8	51.4	87.5	53.4	95.7	viability, T/C [23]: 29.3%; viability, T/C [24]: 17%; viability, T/C [27]: 25.5%; viability, T/C [28]: 16.6%; viability, T/C [30]: 46.1%; viability, T/C [31]: 24.5%; viability, T/C [32]: 20.6%; viability, T/C [33]: 91.9%; viability, T/C [34]: 31.4%; viability, T/C [35]: 23.6%; viability, T/C [36]: 22.8%; viability, T/C [37]: 55.3%; viability, T/C [38]: 33.3%; viability, T/C [39]: 20.4%; viability, T/C [40]: 14.2%
COc1cccc2c1C(=O)c1c(O)c3c(c(O)c1C2=O)CC(O)(C(=O)CO)CC3OC1CC(N)C(O)C(C)O1 (stereo not given) + CC(CO)NC(=O)c1cc(-c2ccc(Cl)cc2)nn(-c2cnn(C)c2)c1=O	< 31.6	50.1	53.3	< 31.6	38.7	49.1	45.1	54.6	42.6	56.4	41.7	50.7	41.8	52.9	37	28	2.42	24.5	2.21	24.1	viability, T/C [23]: 7.75%; viability, T/C [24]: 13.9%; viability, T/C [27]: 5.07%; viability, T/C [28]: 13.4%; viability, T/C [30]: 9.29%; viability, T/C [31]: 2.9%; viability, T/C [32]: 14.6%; viability, T/C [33]: 25.8%; viability, T/C [34]: 8.77%; viability, T/C [35]: 7.63%; viability, T/C [36]: 14%; viability, T/C [37]: 18.7%; viability, T/C [38]: 6.31%; viability, T/C [39]: 6.29%; viability, T/C [40]: 13.8%
Nc1ncn(C2CC(O)C(CO)O2)c(=O)n1 (stereo not given) + CC(CO)NC(=O)c1cc(-c2ccc(Cl)cc2)nn(-c2cnn(C)c2)c1=O	621	652	> 1000	803	> 1000	106	70.9	107	70.8	120	78.6	87.3	87.1	74.1	80.2	67.9	40.1	68.1	41.2	67.8	viability, T/C [1]: 113%; viability, T/C [2]: 105%; viability, T/C [5]: 97.2%; viability, T/C [6]: 107%; viability, T/C [9]: 111%; viability, T/C [10]: 85.7%; viability, T/C [30]: 50.8%; viability, T/C [13]: 98.2%; viability, T/C [14]: 95.2%; viability, T/C [33]: 64.7%; viability, T/C [34]: 46.4%; viability, T/C [17]: 83.3%; viability, T/C [18]: 87%; viability, T/C [37]: 62.4%; viability, T/C [38]: 51%
